Experiment: penetration of retinal into the skin (topical application)
Conditions: retinal by itself

In the case of `CC1=C(/C=C/C(C)=C/C=C/C(C)=C/C=O)C(C)(C)CCC1` [Retinal], the penetration rate is reported as “about 2%”.

Source: patent publication US20130149362A1, “TREATMENT PRODUCT AND METHOD” (priority 2007, published 2013)
